Measurements taken from patent publication US11364209B2, “Methods and compositions for treating atopic dermatitis” (Golden Biotechnology Corporation, priority 2016, dated 2022).

Columns and labels:
[1] = Outside-in animal model (OVA-sensitized mice): body weight and clinical signs; assay type: in vivo; conditions: oral doses
Method: BALC/c female rat in 6-8-week old is used. Each group has 6-8 rats. Blood sample was taken from the cheek of rat before sensitization. On day 1 and day 8, mice were injected intraperitoneally with 50 μg/mice of OVA-aluminum hydroxide (1:1 v/v). The mice were epicutaneously sensitized with OVA patches on day 15. OVA (100 μg) prepared in PBS was contained in a 2×2-cm patch of sterile gauze that was placed on the shaved backs of mice and secured to the skin with 3 M Tegader film followed by 3 M Coban tape to secure the gauze. After 3 days, the gauze was removed and reapplied. The procedure was repeated three times. Day 27, all the mice in the study was sacrificed and examined.
days 1 and 8 were injected OVA (sensitization), day 15 applied OVA gauze for 3 days (challenge) and rested one day. The application of OVA gauze procedure was repeated 3 times. Starting on day 14, the mice in the group were fed water.
Same procedure as group O except the mice were fed low dose (5 mg/kg BW) of exemplary compound 1.
Same procedure as group O except the mice were fed medium dose (15 mg/kg BW) of exemplary compound 1.
Same procedure as group O except the mice were fed high dose (45 mg/kg BW) of exemplary compound 1.

[2] = Metabolite obtained from urine of rats fed with Compound 1; assay type: in vivo; conditions: urine samples of rats fed with Compound 1
Method: Compound 27 was determined to be 4-hydroxy-2,3-dimethoxy-6-methyl-5-(3-methyl-2-hexenoic acid)cyclohex-2-enone with molecular weight of 312 (C16 H24O6). Compound 25 which was determined as 2,3-dimethoxy-5-methyl-6-((2E,6E)-3,7,11-trimethyldodeca-2,6,10-trienyl)cyclohexa-2,5-diene-1,4-dione (molecular weight of 386.52, C24 H34 O4), was obtained from the purification process.

[3] = all treatment groups, through the study period

Row | Structure (SMILES) | body weight change between all treatment groups ([1]; FIG. 1) | loss in body weight [1, 3] | observed clinical signs [1, 3] | metabolite found in urine [2]
1 | COC1=C(OC)C(O)C(C/C=C(\C)CC/C=C(\C)CCC=C(C)C)C(C)C1=O (stereo not shown) [Compound 1, 4-hydroxy-2,3-dimethoxy-6-methyl-5-(3,7,11-trimethyldodeca-2,6,10-trienyl)cyclohex-2-enone] | no significant difference | did not lead to any loss in body weight | did not lead to any loss in body weight or any observed clinical signs | 
2 | COC1=C(OC)C(O)C(C/C=C(\C)CCC(=O)O)C(C)C1=O (stereo not shown) [Compound 27] |  |  |  | a metabolite of compound 1
